In patent US20220226473A1, “Nucleic acid nanocarrier drug and preparation method thereof, pharmaceutical composition and application thereof” (BAI YAO ZHI DA (BEIJING) NANOBIO TECHNOLOGY CO., LTD., priority 2018, published 2022):
Where two headings read alike, the source gives them in different places. {Biotin} = biotin (Bio) of the a-strand

Tests used:
HL60 cells = experiment: Cytotoxicity of RNAh-Bio-670-EPB nanoparticles, CellTiter-Glo; type: cell-based; details: HL60, treatment time 72 h, CellTiter-Glo; read-out: IC50
Description: Preparing a freshly prepared reagent into a corresponding volume container, and adding PBS to be quantified to 10 μM.
Cells are cultured at 37 DEG C. and 5% CO2 in a corresponding basal medium in which 10% FBS and 1% PS are respectively added. The cell density used in the experiment is above 80%. The cells are collected, and centrifuged at 1000 rpm for 4 minutes, the medium is resuspended, the cell concentration is adjusted, and it is added to the 96-well plate in a volume of 3000 cells per 50 μL, and each group has 3 replicate wells.
After 24 hours, the compound solution is transferred to each well by 50 μL/well.
The above cells after administration are cultured for 72 hours under a condition of 37 DEG C and 5% CO2.
The well plate is brought to a room temperature in advance and stands for 30 minutes, 100 μL of a CellTiter-Glo® reagent is added to each well of the well plate and mixed for 2 minutes on a shaker to promote cell lysis. The Perkin Elmer Envision 2104 Multilabel Reader is used to read values and the values are recorded.
The acquired experiment data is analyzed and processed by using excel software, and GraphPad Prism 5 software is used for curve fitting analysis.

MOLT4 cells = experiment: Cytotoxicity of RNAh-Bio-670-MTX nanoparticles, CTG; type: cell-based, human; details: 200 nM
Description: 1) Using the RPMI1640+10% FBS+1% PS medium to culture the MOLT4 cells at 37 DEG C. and 5% CO2.
2) Collecting the cells, centrifuging at 800 rpm for 5 minutes, resuspending the medium, adjusting the cell concentration, and adding to the 96-we plate in a volume of 5000 cells per 90 μL. […]
4) After being cultured for 72 hours, adding 100 μL of the CTG reagent to each well, shaking for 2 minutes, and standing at the room temperature for 10 minutes, herein a whole process is protected from light.
5) Finally using Soft Max Pro5 software to read.

SKOV3 cells = experiment: Cytotoxicity of DNAh-Biotin-EGFRapt-Cy5-THP nanoparticles; type: cell-based, human
Description: (§1) 2) adjusting the cell density to 2.22×10^4/mL with a growth medium:
(§2) 3) planting 90 μL/well of cell suspension into the 96-well plate, herein the number of cells per well in the plate is 2000;
(§3) 4) placing the planted cell plate in the incubator at 37 DEG C. and incubating overnight;
(§4) 5) performing 3.16-fold gradient dilution on the compound at 9 concentration points;
(§5) 6) taking out the cell culture plate, and adding 10 μL/well of 10× concentration drug working solution to the corresponding wells of the cell culture plate, herein three replicate holes are made for each concentration, and the final drug action concentration is shown in the table below.
(§6) 7) placing the cell culture plate in the incubator and continuously incubating for 96 hours;
(§7) 8) placing the CellTiter 96@D AQueous One Solution reagent at the room temperature and thawing for 90 minutes or thawing in a water bath at 37 DEG C., and then equilibrating at the room temperature for 30 minutes;
(§8) 9) adding 20 μL/well of the CellTiter 96® AQueous One Solution reagent to the cell culture plate;
(§9) 10) placing the cell culture plate in the incubator at 37 DEG C. and continuously incubating for 3 hours;
(§10) 11) using the microplate reader to read a OD490 value of each well in the cell plate; and
(§11) 12) data processing and analysis.
(§12) GraphPad Prism5.0 software is used to process data graphically. In order to calculate the IC50, […] non-linear regression analysis is performed on the data to match a suitable dosage-effect curve. A calculation formula of the cell survival rate is as follows, the IC50 may be automatically calculated in the GraphPad Prism 5.0.
(§13) Cell survival rate (%)=(ODtest well−ODblank control)/(ODnegative control−ODblank control)×100%.
(§14) II. Experiment Device and Method Same as (II)

SGC-7901 cells = experiment: as above; type: cell-based, human
Description: as §1, §2, §3, §4, §5, §6, §7, §8, §9, §10, §11, §12, §13, §14

SH-SY5Y cells = experiment: Cytotoxicity of RNAh-Biotin-quasar670-aspirin nanoparticles, CTG kit; type: cell-based; details: Homo sapiens, SH-SY5Y
Description: Experiment purpose: an effect of a compound on proliferation of a target tumor cell line is researched.
Experiment design: the compound is diluted in 8 concentration gradients and sequentially added to the target tumor cell line and incubated for 72 hours, the CTG kit is used to detect the effect of the compound on the cell proliferation.

BXPC3 cells = experiment: Cytotoxicity of RNAh-Bio-670-gemcitabine nanoparticles; type: cell-based; details: Homo sapiens, BXPC-3
Source text: I. Samples to be tested: small molecular drug gemcitabine and […] nanoparticles

[1] = TM value detection by solubility curve method (SYBR Green I); type: physicochemical; details: DNA nanoparticles
Description: A solubility curve method is used to detect TM values of the 7 groups of the extension fragment deformation+core short-sequence RNA nanoparticles, and the samples are consistent with the potential samples.
(1) After the sample is diluted with ultrapure water, 5 μg of the diluted sample is mixed with 2 μL of SYBR Green I dye (diluted by 1:200), a final volume is 20 μL, and the dilution concentration is as follows:
(2) It is incubated for 30 min in the dark at a room temperature; and
(3) On-machine detection is performed, a program is set to start at 20 DEG C., the temperature rises per second from 0.1 DEG C. to 95 DEG C., and reading is performed every 5 s.
Due to the particularity of the RNA samples, a temperature corresponding to ½ RFUmax in a range of 20 to 90 DEG C. is used as a sample Tm value in this test.
A solubility curve method is used to detect TM values of the 7 groups of the extension fragment deformation+core short-sequence DNA nanoparticles, and the samples are consistent with the potential samples.
(1) After the sample is diluted with ultrapure water, 5 μg of the diluted sample is mixed with 2 μL of SYBR Green I dye (diluted by 1:200). a final volume is 20 μL, and the dilution concentration is as follows: […]

HepG2 cells [2] = experiment: CCK8 toxicity of DNA nanoparticles and carrier drugs; type: cell-based; details: HepG2, CCK8, 72 hours
Description: A CCK8 method is used to detect the toxicity of DNA nanoparticles and carrier drugs to HepG2.
2. A sample to be tested is diluted according to the following table and added: the original culture medium is removed and 100 μL of a culture medium of the sample to be tested with the different concentration is added, and there are 3 replicate wells in each group.
In the present embodiment, the loaded drug and the blank carrier are firstly prepared into 100 μM of stock solution using the PBS, and then diluted with the complete culture medium (biotin-free DMEM). The original drug doxorubicin is firstly prepared into 100 NM of stock solution by using the DMSO, and then diluted with the complete culture medium (biotin-free DMEM). The DMSO is directly diluted with the complete medium (biotin-free DMEM).
3. After the sample to be tested is added, the 96-well plate is placed in an incubator under 37 DEG C. and 5% CO2 and incubated for 72 hours.
4. A kit is taken out and melted at a room temperature, 10 μL of CCK-8 solution is added to each wall, or the CCK8 solution is nixed with the culture medium at a ratio of 1:9, and then added to the well in an amount of 100 μL/well.
5. It is continuously incubated in the cell incubator for 4 hours, and a length of time depends on experimental conditions such as a cell type and a el density.
6. A microplate reader is used to measure an absorbance at 450 nm.
7. Calculation: cell viability (%)=(OD experimental group−OD blank group)[…]/(OD control group−OD blank group), IC50 is calculated by GraphPad Prism 5.0.

[3] = Particle size measurement (DLS hydrodynamic size); type: physicochemical; details: DLS hydrodynamic size
[4] = Electric potential (zeta potential) measurement of self-assembly products; type: physicochemical; details: result over 3 detections, at 25 DEG C.
Outline: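 Self-assembled RNA or DNA nanoparticles dissolved in ultrapure water; zeta potential measured manually at 25 °C.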

HepG2 cells [5] = experiment: Cell binding of DNA nanoparticles and carrier drugs by FACS; type: cell-based; details: incubated at 37 DEG C. for 2 h, flow cytometry
Description: 1. A cell state is adjusted to a logarithmic growth phase, the medium is changed into a medium without biotin and folic acid, and it is incubated overnight in an incubator at 37 DEG C.
2. After incubation, cell suspension is trypsinized and collected, and centrifuged at 1000 rpm for 5 min, after the concentration is adjusted, a 2×10^6-5×10^6 cell/EP tube is taken and washed twice with 1 mL/tube of 1% BSA-PBS, and cells at the bottom of the tube is observed to prevent them from being absorbed.
3. A substance to be tested is dissolved, and the substance to be tested is diluted to a use concentration.
4. Cell supernatant is absorbed, 100 μL of a corresponding sample is added to each tube in order, light is avoided, and it is incubated at 37 DEG C. for 2 h.
5. It is washed twice with 1% BSA-PBS; and centrifuged at 1000 rpm for 5 min.
6. Finally, it is precipitated with 300 μL of PBS cell resuspension, and flow Cytometric on-machine detection (the blank carrier used in the present embodiment is labeled by Quasar670, and the doxorubicin in the carrier drug has its own fluorescence, so the detection may be performed through FL4-APC and FL2-PE respectively) is performed.

[6] = Drug loading rate of nucleic acid nanoparticles (chemical loading, absorbance standard curve); type: physicochemical; set-up: unit not given here
Source text: According to the chemical loading method (unless otherwise specified, the method is the same as that of Embodiment 5) of Embodiment 5, the RNA nanoparticles formed by the self-assembly of the previous R-15, R-16, R-17, R-18, R-19, R-20 and R-21 in Embodiment 9, and the DNA nanoparticles formed by the self-assembly of the D-8, D-9, D-10, D-11, D-12, D-13 and D-14 in Embodiment 10 are respectively used as doxorubicin loading carriers, doxorubicin loading rates measured are respectively as follows:
According to the chemical loading method (unless otherwise specified, the method is the same as that of Embodiment 5) of Embodiment 5, the DNA nanoparticles formed by the self-assembly of the previous D-10 and D-14 in Embodiment 10 are used as a daunorubicin loading carrier.
According to a chemical loading method of Embodiment 5 (unless otherwise specified, the method is the same as that of Embodiment 5, the same molar number of the epirubicin is used as a loading amount), nucleic acid nanoparticles (a molecular weight is 29550, it is similar to the RNA nanoparticles in Embodiment 1, and a difference is that a fluorescent label on a c-strand is Cy5) are used as a carrier, and respectively loaded with: epirubicin, methotrexate, pirarubicin, daunorubicin, […], 10-hydroxycamptothecin, aspirin and gemcitabine.
Herein, when a standard curve is drawn, the absorbance of the above drugs on the microplate reader is measured respectively. The absorbance of the epirubicin, methotrexate, pirarubicin, daunorubicin, […], 10-hydroxycamptothecin, aspirin and gemcitabine is respectively detected at the following wavelengths: 492 nm, 303 nm, 492 nm, 492 nm, 265 nm, 384 nm, 225 nm and 268 nm. The standard curves obtained correspondingly are respectively shown in FIG. 48a, FIG. 49, FIG. 50sa, FIG. 51, FIG. 52, FIG. 53, FIG. 54a and FIG. 55. […]

## COc1cccc2c1C(=O)c1c(O)c3c(c(O)c1C2=O)C[C@@](O)(C(=O)CO)C[C@@H]3O[C@H]1C[C@H](N)[C@@H](O)[C@H](C)O1 [Epirubicin (EPB)]
HL60 cells
  IC50: 0.301 µM

## CN(Cc1cnc2nc(N)nc(N)c2n1)c1ccc(C(=O)N[C@@H](CCC(=O)O)C(=O)O)cc1 [MTX, methotrexate]
MOLT4 cells; 72 hours
  effect on proliferation of MOLT4 cells: significant inhibitory effect on the proliferation of the MOLT4 cells

## CN(Cc1cnc2nc(N)nc(N)c2n1)c1ccc(C(=O)N[C@@H](CCC(=O)O)C(=O)O)cc1 [Methotrexate (MTX)]
MOLT4 cells; MOLT-4, 72 h
  cell survival rate (%): 2.88%

## COc1cccc2c1C(=O)c1c(O)c3c(c(O)c1C2=O)C[C@@](O)(C(=O)CO)C[C@@H]3O[C@H]1C[C@H](N)[C@H](O[C@@H]2CCCCO2)[C@H](C)O1 [THP, pirarubicin]
SKOV3 cells
  toxicity to SKOV3 cells: toxic to the SKOV3 cells
SKOV3 cells; Homo sapiens, SK-OV-3, SKOV3
  IC50: 0.0237 µM
SGC-7901 cells
  toxicity to SGC-7901 cells: toxic to the SGC-7901 cells
SGC-7901 cells; Homo sapiens, SGC-7901
  IC50: 0.0274 µM

## CC(=O)Oc1ccccc1C(=O)O [aspirin]
SH-SY5Y cells; 72 hours, read-out: IC50, SH-SY5Y cell proliferation
  IC50: 1430 µM
SH-SY5Y cells; administration concentration 5 μM, 72 hours, read-out: cell inhibition rate, SH-SY5Y cells
  inhibition at 5 µM: 17.7%
SH-SY5Y cells; 72 h, CTG kit, read-out: IC50
  IC50: 1430 µM

## Nc1ccn([C@@H]2O[C@H](CO)[C@@H](O)C2(F)F)c(=O)n1 [gemcitabine]
BXPC3 cells; BXPC3, 72 h, read-out: IC50
  IC50: 0.0342 µM
BXPC3 cells; administration concentration 5 μM, read-out: cell inhibition rate, BxPC3 cells
  inhibition at 5 µM: 83%
BXPC3 cells; read-out: IC50, BxPC3 cell proliferation
  IC50: 0.0341 µM

B1: D-14: extension fragment deformation+core short-sequence DNA nanoparticle, SEQ ID NO: 159-161, 3′ biotin (nucleic acid)
chain 1: GCGGCGAGCGGCGACGAGCGTTGCGGCCGGAGGCCGG
chain 2: CCGGCCTCCGGCCGCTTCGGCGCCAGCCGCC
chain 3: GGCGGCAGGCGCCCATAGCCGTCGCCGCTCGCCGC
modifications: chain 1: DNA, 3' {Biotin}, backbone not given here; chain 2: DNA, backbone not given here; chain 3: DNA, backbone not given here; three-strand DNA nanoparticle carrier
[1]
  TM value (° C.): 49.2 °C
HepG2 cells [2]
  IC50: > 1 µM
[3]
  Mean particle size (nm): 6.896 nm
[4]
  Potential ZP, Experiment result: −28.73 mV
HepG2 cells [5]; HepG2, 1 μM
  Positive rate: 97.4%
HepG2 cells [5]; HepG2, 2 μM
  Positive rate: 98.3%
[6]; absorbance at 492 nm
  daunorubicin loading rate: 25.1
[6]; chemical loading method of Embodiment 5
  doxorubicin loading rate: 32
